# Measurements taken from patent US10045981B2, “Selective kinase inhibitors” (JAKPHARM, LLC, priority 2015, dated 2018).
# Where two headings read alike, the source gives them in different places. Marks after values point to notes of the source that are not given here.
# Key:
# [1] = molecular target: T1, JAK3 (Homo sapiens, UniProt P52333); assay: JAK3 biochemical IC50; settings: for JAK3 selectivity vs. STAT5: STAT5 IC50 relative to JAK3 IC50; for selectivity for JAK3 compared to JAK1, JAK2, and TYK2 (in words): two independent analyses
# T1 sequence (P52333 1-1124): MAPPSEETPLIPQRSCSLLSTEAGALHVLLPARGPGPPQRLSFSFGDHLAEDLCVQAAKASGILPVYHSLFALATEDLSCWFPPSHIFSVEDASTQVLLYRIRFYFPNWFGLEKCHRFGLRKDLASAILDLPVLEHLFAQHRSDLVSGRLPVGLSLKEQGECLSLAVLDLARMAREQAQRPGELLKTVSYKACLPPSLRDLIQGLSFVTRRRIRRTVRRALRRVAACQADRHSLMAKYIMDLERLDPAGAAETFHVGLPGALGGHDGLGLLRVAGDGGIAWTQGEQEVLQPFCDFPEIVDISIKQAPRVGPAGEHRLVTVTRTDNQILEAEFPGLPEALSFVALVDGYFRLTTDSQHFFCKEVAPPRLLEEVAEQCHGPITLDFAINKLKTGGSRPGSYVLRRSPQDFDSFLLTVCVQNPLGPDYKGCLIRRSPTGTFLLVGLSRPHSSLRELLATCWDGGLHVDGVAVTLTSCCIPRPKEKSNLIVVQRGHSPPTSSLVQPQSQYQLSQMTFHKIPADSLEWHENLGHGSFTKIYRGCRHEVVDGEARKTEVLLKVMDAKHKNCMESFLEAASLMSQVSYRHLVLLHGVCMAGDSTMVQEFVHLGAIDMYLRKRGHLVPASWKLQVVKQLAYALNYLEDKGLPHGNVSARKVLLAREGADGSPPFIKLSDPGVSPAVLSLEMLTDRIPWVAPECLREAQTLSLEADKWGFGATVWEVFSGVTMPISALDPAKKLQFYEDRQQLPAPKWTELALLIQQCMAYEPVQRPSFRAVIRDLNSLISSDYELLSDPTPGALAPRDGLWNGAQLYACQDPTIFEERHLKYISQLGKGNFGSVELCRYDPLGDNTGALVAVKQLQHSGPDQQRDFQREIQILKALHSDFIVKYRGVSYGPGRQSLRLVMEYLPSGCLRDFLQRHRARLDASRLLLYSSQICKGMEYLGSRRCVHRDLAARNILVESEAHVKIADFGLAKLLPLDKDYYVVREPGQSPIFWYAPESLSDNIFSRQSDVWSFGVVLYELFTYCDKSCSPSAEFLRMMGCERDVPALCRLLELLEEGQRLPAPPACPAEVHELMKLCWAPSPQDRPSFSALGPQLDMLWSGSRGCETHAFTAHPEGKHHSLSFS
# [2] = system: STAT5; assay: STAT5 inhibition IC50; assay type: cell-based
# [3] = molecular target: JAK1 (Homo sapiens, UniProt P23458); assay: JAK1 IC50; assay type: biochemical
# [4] = Solubility in aqueous buffer; assay type: physicochemical; settings: for solubility: aqueous buffer
# [5] = molecular target: CK1g1 (Homo sapiens, UniProt Q9HCP0); assay: Exemplary Kinase Panel Analysis; assay type: biochemical; settings: 10 concentrations, 3-fold serial dilutions starting at 5 μM, duplicate
# [6] = molecular target: CK1g2 (Homo sapiens, UniProt P78368); assay: Exemplary Kinase Panel Analysis; assay type: biochemical; settings: 10 concentrations, 3-fold serial dilutions starting at 5 μM, duplicate
# [7] = molecular target: CK1g3 (Homo sapiens, UniProt Q9Y6M4); assay: Exemplary Kinase Panel Analysis; assay type: biochemical; settings: 10 concentrations, 3-fold serial dilutions starting at 5 μM, duplicate
# [8] = molecular target: EGFR (G719C) (Homo sapiens, UniProt P00533, G719C); assay: Exemplary Kinase Panel Analysis; assay type: biochemical; settings: 10 concentrations, 3-fold serial dilutions starting at 5 μM, duplicate
# Method: Kinase Panel: These compounds were tested against 439 kinases. […]. […] The results are presented in Table 2 below, where empty cells indicate no inhibition or compound activity that could not be fit to an IC50 curve.
# [9] = molecular target: T2, CYP1A2 (Homo sapiens, UniProt P05177); assay: CYP1A2 inhibition LCMS; assay type: in vitro ADME
# T2 sequence (P05177 1-516): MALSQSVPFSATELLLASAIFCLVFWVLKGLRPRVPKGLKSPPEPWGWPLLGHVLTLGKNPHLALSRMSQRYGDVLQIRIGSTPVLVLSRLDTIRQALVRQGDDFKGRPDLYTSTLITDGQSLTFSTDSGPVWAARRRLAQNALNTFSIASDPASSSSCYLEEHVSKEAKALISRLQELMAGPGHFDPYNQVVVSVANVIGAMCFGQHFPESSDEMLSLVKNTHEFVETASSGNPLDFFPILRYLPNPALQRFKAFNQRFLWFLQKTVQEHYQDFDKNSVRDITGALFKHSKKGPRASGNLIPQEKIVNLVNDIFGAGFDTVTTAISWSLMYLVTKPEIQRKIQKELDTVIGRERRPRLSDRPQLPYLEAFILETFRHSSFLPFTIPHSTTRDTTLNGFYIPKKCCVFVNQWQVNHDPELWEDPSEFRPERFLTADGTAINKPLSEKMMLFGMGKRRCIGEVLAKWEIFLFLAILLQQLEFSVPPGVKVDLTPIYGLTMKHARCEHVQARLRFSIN
# [10] = molecular target: CYP2D6 (Homo sapiens, UniProt P10635); assay: CYP2D6 inhibition LCMS; assay type: in vitro ADME
# [11] = molecular target: T3, CYP3A4 (Homo sapiens, UniProt P08684); assay: CYP3A4 inhibition midazolam LCMS; assay type: in vitro ADME
# [12] = molecular target: T3, CYP3A4; assay: CYP3A4 inhibition testosterone LCMS; assay type: in vitro ADME; settings: read-out: CYP3A4 K50 [uM] testosterone LCMS
# [13] = Human Plasma protein binding; assay type: in vitro ADME
# [14] = Mouse Plasma protein binding; assay type: in vitro ADME
# [15] = molecular target: T4, hERG (Homo sapiens, UniProt Q12809); assay: hERG K+ channel current in HEK293 cells; assay type: cell-based
# T4 construct: expressed in transfected cells; host or cells: HEK293
# [16] = Original analysis, read-out: JAK3 IC50 (uM) Original
# [17] = Table 3, first session (before /), read-out: JAK3 biochemical IC50
# [18] = Table 3, second session (after /), read-out: JAK3 biochemical IC50
# [19] = re-test, read-out: JAK3 IC50 (uM) re-test
# [20] = Original analysis, read-out: STAT5 IC50 (uM) Original
# [21] = Table 3, first session (before /), read-out: STATS inhibition IC50
# [22] = Table 3, second session (after /), read-out: STATS inhibition IC50
# [23] = re-test, read-out: STAT5 IC50 (uM) re-test
# [24] = Original analysis, read-out: JAK1 IC50 (uM) Original
# [25] = re-test, read-out: JAK1 IC50 (uM) re-test
# [26] = pH 7.4, aqueous buffer, pH 7.4, Original, read-out: Solubility pH 7.4 (uM) Original
# [27] = pH 7.4, aqueous buffer, pH 7.4, Re-test, read-out: Solubility pH 7.4 (uM) Re-test
# [28] = pH 7.4, aqueous buffer, pH 7.4, Table 3, first session (before /), read-out: Solubility, pH 7.4
# [29] = pH 7.4, aqueous buffer, pH 7.4, Table 3, second session (after /), read-out: Solubility, pH 7.4
# T3 sequence (P08684 whole entry): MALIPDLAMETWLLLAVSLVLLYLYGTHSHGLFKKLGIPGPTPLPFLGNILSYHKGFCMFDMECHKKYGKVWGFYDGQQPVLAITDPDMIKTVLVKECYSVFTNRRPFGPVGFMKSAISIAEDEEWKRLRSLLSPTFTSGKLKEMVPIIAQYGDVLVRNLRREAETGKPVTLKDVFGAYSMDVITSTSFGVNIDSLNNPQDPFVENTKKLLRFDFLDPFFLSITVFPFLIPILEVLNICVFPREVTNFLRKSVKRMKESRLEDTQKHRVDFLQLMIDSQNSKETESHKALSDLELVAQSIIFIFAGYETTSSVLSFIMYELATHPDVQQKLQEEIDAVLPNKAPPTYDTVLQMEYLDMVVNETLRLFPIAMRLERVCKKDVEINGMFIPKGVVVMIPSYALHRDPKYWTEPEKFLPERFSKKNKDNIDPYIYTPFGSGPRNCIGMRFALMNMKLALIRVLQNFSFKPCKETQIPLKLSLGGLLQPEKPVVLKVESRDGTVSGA
# Sequence of JAK1 (P23458 whole entry, species assumed): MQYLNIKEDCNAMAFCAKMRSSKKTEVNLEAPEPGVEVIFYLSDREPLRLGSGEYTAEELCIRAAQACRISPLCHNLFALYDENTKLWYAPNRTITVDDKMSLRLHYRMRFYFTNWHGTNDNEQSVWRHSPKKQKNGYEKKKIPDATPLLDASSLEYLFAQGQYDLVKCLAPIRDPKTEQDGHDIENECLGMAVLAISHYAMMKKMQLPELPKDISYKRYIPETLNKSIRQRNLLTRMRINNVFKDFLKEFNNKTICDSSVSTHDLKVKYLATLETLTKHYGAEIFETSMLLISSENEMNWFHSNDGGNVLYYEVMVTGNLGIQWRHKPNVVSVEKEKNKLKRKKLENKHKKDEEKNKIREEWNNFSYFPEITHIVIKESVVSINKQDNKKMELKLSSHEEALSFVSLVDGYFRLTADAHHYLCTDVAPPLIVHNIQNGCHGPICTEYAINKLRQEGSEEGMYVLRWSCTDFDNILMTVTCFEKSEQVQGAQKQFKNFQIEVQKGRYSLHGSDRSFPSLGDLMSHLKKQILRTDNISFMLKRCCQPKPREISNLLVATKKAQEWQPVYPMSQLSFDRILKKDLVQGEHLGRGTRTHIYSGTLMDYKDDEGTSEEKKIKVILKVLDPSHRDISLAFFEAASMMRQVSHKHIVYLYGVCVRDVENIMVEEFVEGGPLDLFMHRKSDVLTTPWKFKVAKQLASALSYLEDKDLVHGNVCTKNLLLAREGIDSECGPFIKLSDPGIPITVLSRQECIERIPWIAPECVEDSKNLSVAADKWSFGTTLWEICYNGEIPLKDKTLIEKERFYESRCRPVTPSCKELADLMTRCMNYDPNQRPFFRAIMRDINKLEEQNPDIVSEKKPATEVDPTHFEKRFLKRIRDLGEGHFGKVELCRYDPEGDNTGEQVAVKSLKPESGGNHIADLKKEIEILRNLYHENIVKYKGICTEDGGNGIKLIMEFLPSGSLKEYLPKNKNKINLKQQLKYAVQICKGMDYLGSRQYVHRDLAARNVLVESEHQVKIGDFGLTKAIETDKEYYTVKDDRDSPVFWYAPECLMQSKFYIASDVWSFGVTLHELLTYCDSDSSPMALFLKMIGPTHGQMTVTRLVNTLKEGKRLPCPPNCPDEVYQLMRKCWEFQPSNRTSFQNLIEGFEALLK
# Sequence of CYP2D6 (P10635 whole entry): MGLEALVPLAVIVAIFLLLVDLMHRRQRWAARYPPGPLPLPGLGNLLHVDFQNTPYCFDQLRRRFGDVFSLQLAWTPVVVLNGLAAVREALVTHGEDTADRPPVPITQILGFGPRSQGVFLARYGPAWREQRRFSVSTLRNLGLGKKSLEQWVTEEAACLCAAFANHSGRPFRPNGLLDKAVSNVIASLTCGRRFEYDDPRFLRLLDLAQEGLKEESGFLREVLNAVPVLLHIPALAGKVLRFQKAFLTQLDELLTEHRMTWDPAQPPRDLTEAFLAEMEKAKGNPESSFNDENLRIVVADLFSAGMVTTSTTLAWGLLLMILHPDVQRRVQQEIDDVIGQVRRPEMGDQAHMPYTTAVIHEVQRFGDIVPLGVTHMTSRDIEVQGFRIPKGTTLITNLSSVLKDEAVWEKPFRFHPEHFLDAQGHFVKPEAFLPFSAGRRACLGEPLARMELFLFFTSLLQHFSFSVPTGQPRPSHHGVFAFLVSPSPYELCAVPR
# Sequence of EGFR (G719C) (P00533 25-1210 G719C): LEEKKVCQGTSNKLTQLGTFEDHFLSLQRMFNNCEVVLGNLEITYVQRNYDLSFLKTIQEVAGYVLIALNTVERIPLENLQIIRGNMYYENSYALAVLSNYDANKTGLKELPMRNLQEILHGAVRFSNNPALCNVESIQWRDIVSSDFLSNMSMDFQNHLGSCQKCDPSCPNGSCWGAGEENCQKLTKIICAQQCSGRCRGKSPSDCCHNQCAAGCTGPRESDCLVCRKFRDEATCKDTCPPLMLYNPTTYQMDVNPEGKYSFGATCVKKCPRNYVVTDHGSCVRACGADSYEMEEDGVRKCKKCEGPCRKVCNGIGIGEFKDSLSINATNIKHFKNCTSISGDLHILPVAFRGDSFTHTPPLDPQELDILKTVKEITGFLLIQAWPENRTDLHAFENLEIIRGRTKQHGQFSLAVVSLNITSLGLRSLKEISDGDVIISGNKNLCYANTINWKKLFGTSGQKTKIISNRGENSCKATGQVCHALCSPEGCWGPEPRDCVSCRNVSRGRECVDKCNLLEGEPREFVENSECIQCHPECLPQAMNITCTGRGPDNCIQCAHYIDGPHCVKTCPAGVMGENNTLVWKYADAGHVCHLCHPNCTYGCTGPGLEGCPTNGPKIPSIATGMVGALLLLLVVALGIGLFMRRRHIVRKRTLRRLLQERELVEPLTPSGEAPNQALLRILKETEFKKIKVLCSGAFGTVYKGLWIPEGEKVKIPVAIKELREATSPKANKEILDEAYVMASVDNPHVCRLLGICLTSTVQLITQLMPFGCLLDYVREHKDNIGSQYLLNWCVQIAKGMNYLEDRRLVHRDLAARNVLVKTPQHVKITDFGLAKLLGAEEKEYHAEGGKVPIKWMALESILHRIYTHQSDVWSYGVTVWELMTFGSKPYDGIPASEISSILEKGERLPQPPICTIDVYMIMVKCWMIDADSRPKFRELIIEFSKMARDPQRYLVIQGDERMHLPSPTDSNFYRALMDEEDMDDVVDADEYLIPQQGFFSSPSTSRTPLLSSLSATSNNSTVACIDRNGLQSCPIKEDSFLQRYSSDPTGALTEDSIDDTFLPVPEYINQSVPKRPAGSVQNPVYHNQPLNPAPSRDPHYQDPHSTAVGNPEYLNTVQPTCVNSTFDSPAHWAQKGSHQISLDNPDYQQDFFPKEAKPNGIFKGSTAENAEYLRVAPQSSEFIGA
# T4 sequence (Q12809 whole entry): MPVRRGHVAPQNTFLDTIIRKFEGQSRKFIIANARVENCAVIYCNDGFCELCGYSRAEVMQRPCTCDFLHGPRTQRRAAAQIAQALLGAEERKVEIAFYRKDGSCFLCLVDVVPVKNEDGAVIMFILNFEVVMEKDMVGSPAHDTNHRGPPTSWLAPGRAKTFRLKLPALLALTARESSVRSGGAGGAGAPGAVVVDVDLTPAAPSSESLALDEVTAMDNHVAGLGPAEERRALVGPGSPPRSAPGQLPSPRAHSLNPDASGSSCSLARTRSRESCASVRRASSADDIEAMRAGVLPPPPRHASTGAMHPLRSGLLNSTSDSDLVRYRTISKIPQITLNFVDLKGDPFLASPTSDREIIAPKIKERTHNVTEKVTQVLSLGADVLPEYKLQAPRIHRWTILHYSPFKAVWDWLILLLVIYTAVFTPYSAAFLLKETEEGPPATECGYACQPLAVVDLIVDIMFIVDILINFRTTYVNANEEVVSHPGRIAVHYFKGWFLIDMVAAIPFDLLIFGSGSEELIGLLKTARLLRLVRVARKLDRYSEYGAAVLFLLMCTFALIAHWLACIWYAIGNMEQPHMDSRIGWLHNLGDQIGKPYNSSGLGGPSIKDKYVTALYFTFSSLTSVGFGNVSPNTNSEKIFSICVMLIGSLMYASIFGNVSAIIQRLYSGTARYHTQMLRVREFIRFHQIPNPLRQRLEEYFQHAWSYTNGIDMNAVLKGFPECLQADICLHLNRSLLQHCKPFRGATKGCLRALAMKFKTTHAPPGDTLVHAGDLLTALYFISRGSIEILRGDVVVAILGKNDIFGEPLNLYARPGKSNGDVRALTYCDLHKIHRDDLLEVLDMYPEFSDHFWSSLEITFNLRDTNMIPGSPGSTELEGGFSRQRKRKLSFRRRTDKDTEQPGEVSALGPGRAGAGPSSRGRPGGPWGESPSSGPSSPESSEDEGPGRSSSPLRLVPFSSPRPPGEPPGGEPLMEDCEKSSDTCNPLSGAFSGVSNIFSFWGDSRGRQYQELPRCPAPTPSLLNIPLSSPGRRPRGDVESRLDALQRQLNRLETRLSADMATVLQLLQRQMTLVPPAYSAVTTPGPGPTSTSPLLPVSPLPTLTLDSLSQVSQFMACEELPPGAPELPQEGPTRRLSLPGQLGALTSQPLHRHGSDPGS
# Sequence of CK1g2 (P78368 whole entry, species assumed): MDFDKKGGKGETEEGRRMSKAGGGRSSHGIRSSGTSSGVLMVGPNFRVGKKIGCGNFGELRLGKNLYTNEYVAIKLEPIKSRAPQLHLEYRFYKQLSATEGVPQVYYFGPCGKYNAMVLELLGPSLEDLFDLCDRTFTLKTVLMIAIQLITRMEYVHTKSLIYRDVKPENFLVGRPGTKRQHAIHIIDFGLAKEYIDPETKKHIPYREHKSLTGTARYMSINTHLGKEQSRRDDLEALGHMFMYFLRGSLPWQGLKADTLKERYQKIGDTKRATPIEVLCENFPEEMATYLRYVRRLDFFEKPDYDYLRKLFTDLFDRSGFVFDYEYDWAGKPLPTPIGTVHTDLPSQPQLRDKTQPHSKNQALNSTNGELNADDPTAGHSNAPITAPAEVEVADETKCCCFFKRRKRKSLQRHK
SMILES,"IC50 [1, 16]",JAK3 selectivity vs. STAT5 [1],"IC50 [1, 17]","IC50 [1, 18]","IC50 [1, 19]","selectivity for JAK3 compared to JAK1, JAK2, and TYK2 (in words) [1]","IC50 [2, 20]","IC50 [2, 21]","IC50 [2, 22]","IC50 [2, 23]","IC50 [3, 24]","IC50 [3, 25]","solubility [4, 26]","solubility [4, 27]","solubility [4, 28]","solubility [4, 29]",IC50 [5],IC50 [6],IC50 [7],IC50 [8],other results
C=CC(=O)Nc1cc(CN2CCN(C)C(=O)C2)cc(-c2cnc3ccccc3n2)c1 [Compound 1a],0.013 µM,(178X)*,0.013 µM,0.01 µM,0.01 µM,highly selective for JAK3,1.2 µM,1.2 µM,2.9 µM,2.9 µM,≥ 100 µM,≥ 100 µM,85 µM,34 µM,85 µM,34 µM,0.588 µM,0.248 µM,0.358 µM,0.0661 µM,IC50 ([9]; first session (before /)): 34 µM; IC50 ([9]; second session (after /)): > 100 µM; IC50 ([10]; first session (before /)): > 100 µM; IC50 ([10]; second session (after /)): > 100 µM; IC50 ([11]; first session (before /)): > 100 µM; IC50 ([11]; second session (after /)): > 100 µM; IC50 ([12]; first session (before /)): 81.5 µM; IC50 ([12]; second session (after /)): > 100 µM; fraction unbound [13]: 0.223; fraction unbound [14]: 0.034; IC50 [15]: > 10 µM
"C=CC(=O)Nc1cc(CN2CCNC(=O)C2)cc(-c2cnc3ccccc3n2)c1 [Compound 1b, N-[3-[(3-oxopiperazin-1-yl)methyl]-5-quinoxalin-2-yl-phenyl] prop-2-enamide]",0.018 µM,(392X)*,0.018 µM,0.018 µM,0.018 µM,highly selective for JAK3,5.5 µM,5.5 µM,8.6 µM,8.6 µM,≥ 100 µM,≥ 100 µM,88 µM,88 µM,88 µM,88 µM,0.738 µM,0.322 µM,0.757 µM,0.193 µM,"solubility ([4]; pH 5, aqueous buffer, pH 5.0, read-out: Solubility In Aqueous Buffer pH 5.0): 93 µM; solubility ([4]; pH 6.5, aqueous buffer, pH 6.5, read-out: Solubility In Aqueous Buffer pH 6.5): 108 µM; solubility at pH 7.4 (in words) ([4]; pH 7.4): highly and consistently soluble; IC50 ([9]; first session (before /)): > 100 µM; IC50 ([9]; second session (after /)): > 100 µM; IC50 ([10]; first session (before /)): > 100 µM; IC50 ([10]; second session (after /)): > 100 µM; IC50 ([11]; first session (before /)): > 100 µM; IC50 ([11]; second session (after /)): > 100 µM; IC50 ([12]; first session (before /)): > 100 µM; IC50 ([12]; second session (after /)): > 100 µM; fraction unbound [13]: 0.317; fraction unbound [14]: 0.059; IC50 [15]: > 10 µM"
